One data set concerns the target T1, HSA (Homo sapiens, UniProt P02768).
T1 construct: purchased Sigma-Aldrich A8763
Description: Fluorescence lifetime (TCSPC) of the complexes in the presence of HSA. As to conditions: additional lifetime component in the presence of HSA (2–10 μM), 10 μM complex, pH 7.40. It counts as binding. The procedure: The fluorescence lifetime of InQ3 was determined in the absence and presence of HSA. […] GaQ3 behaves similarly (Table 2), while lifetimes of InD3 were too short (τ ≤ 0.2 ns) for accurate determination with our instrument. By the addition of HSA to the complex, two additional lifetime components appeared for InQ3: τ3 = 5.7 ± 0.3 ns and τ4 = 13.8 ± 0.6 ns, which correspond to the HSA bound forms. […] The GaQ3 ‒ HSA system could be characterized with similar lifetime parameters (Table 2).
Fluorescence lifetime was measured on the same fluorometer equipped with a DeltaHub time-correlated single photon counting (TCSPC) controller applying NanoLED light sources N-300 (λmax = 300 nm) and N-350 (λmax = 355 nm) (Horiba Jobin Yvon). The background (obtained with blank samples) was subtracted from the decay of the samples. The program DAS6 (version 6.6.; Horiba, Jobin Yvon) was used for the analysis of the experimental fluorescence decays. The fluorescence intensity decay over time is described by a sum of exponentials,1 It=∑i=1nαiexp-t/τi where αi and τi are the normalized amplitude and lifetime of component i respectively. The quality of the fit was judged from a χ^2R value close to 1.0 and a random distribution of weighted residuals.

Data set [1] can be described thus: Speciation in threefold diluted human blood serum by UV-vis. The format is in vitro ADME. As to conditions: 10 µM complex. The text has this: With this knowledge, samples prepared in blood serum were studied by UV–vis spectrometry to count the significance of HMM and LMM serum components in the speciation of the complexes (Figs. 9 and S8). Unfortunately, fluorescence spectra could not be recorded due to the significant light scattering of the samples. […] UV–vis spectra in Fig. 9 resemble the behaviour observed for the complex – HSA – Tf ternary systems (Fig. S7) with some important differences. […] This refers to the altered coordination sphere of the metal complex. […] Keeping in mind the difficulties of interpretation of UV–vis spectroscopic data obtained in complex matrices, some assumptions can be made relying on the results of binary and ternary systems. Significant Tf binding of In(III) in blood serum is likely, while GaQ3 interacts less with this protein. […] Formation of HQ – Mg(II) complex is not feasible even at physiological Mg(II) ion levels (0.7–1.0 mM) based on the available stability constants. Zn(II) ion forms higher stability complexes with HQ as Mg(II) and could compete for HQ with In(III) or Ga(III) if its total blood plasma concentration (10–28 μM) would be freely available. […]
For (apo)Tf containing samples, complex concentrations were 20 μM and 0–2.5 equiv. protein was added. Reference spectra for the complexes, ligands and protein were recorded as well. […]

A short description of data set [2]: Fraction of non-dissociated tris-ligand complex at 10 μM, pH 7.40 (UV-vis and speciation calculation). As to conditions: pH 7.4, constants determined at 0.20 M KCl. It counts as physicochemical. The source says: As a first step, interaction of the tris-ligand In(III) complexes with various LMM blood serum components was investigated and compared to that of GaQ3 studied formerly in our research group. The LMM compounds are considered to be more mobile than the high molecular mass components (HMM) such as proteins, and generally their reaction is characterized by faster kinetics. The role of serum compounds might have importance on the distribution of the In(III) complexes since they may be responsible for (partial) displacement of the originally coordinated ligand and they can also form mixed-ligand complexes. […] All the measurements in this work were performed at 25 °C as most of the stability constants used for the modeling calculations published in the literature were determined at this temperature. UV–vis spectra recorded for the tris-ligand complexes at 10 μM concentration (see Fig. S1a for InQ3) in this buffer show 94%, 90% and < 20% non-dissociated InQ3, InD3 and InM3, respectively, which corresponds well to the fractions obtained using the stability constants determined at 0.20 M KCl: 90% (InQ3), 86% (InD3) and 9% InM3 and 6% InM^2+. […]
For the preparation of stock solutions and samples, Milli-Q water was used. Exact concentration of ligand stock solutions was determined via pH-potentiometric titrations (vide infra). […]

Values joined by “and” are separate entries in the source; they are usually repeats but may differ in a detail not shown here. Equal entries are not always repeated. Some results are limits rather than exact numbers.

T1 sequence (P02768 25-609): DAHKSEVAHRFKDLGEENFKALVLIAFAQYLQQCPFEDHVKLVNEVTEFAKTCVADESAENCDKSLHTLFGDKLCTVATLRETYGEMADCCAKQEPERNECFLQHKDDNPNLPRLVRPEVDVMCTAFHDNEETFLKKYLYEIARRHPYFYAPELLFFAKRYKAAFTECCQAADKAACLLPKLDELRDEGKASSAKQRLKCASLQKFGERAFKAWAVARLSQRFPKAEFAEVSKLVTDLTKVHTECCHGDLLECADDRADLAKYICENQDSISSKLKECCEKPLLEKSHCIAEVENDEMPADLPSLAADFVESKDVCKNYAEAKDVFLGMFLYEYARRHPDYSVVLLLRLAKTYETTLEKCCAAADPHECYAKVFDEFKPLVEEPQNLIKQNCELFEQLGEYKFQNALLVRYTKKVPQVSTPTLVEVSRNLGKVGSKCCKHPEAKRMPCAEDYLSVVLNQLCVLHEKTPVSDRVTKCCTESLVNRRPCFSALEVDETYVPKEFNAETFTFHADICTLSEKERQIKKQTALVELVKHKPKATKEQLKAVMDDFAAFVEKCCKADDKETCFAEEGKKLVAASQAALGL

With `[Ga+3].[O-]c1cccc2cccnc12.[O-]c1cccc2cccnc12.[O-]c1cccc2cccnc12` [GaQ3, Tris(8-Quinolinolato)gallium(III), reference compound], at HSA, the τ3 was found to be 5.0 ± 0.3 ns and the τ4 stood at 14.0 ± 0.2 ns. Also, in data set [1], the “time to reach chemical equilibrium in serum” value is reported as at most 10 min.

On to `Cc1c([O-])c(=O)ccn1C.Cc1c([O-])c(=O)ccn1C.Cc1c([O-])c(=O)ccn1C.[In+3]` [InD3], for which the “fraction of tris-ligand complex obtained using the stability constants” value in data set [2] was 86%.

For the compound `[In+3].[O-]c1cccc2cccnc12.[O-]c1cccc2cccnc12.[O-]c1cccc2cccnc12` [InQ3, Tris(8-Quinolinolato)indium(III)], at HSA, the τ3 was 5.7 ns and 5.7 ± 0.3 ns; the τ4 is 13.8 ns and 13.8 ± 0.6 ns. For the same compound, the “fraction of tris-ligand complex obtained using the stability constants” value in data set [2] is 90%. The “time to reach chemical equilibrium in serum” value in data set [1] was 240 min.

Values taken from paper PMC8960621, “Solution speciation and human serum protein binding of indium(III) complexes of 8-hydroxyquinoline, deferiprone and maltol” (Journal of Biological Inorganic Chemistry, 2022).
